Where a name gives a salt, the structure may show the parent alone. Read-outs that look alike come from different tables or passages of the source.
Legend:
[1] = biological target: T1, SARS-CoV-2 PLpro (nsp3 1564–1878) (Severe acute respiratory syndrome coronavirus 2, UniProt P0DTD1); test: biochemical; set-up: FRET-quenched peptide (Pro3) cleavage by PLpro, 10 min pre-incubation, slope over 20 min, normalised to no-compound control; conditions: high concentration screen, read-out: % of control remaining
[2] = biological target: T1, SARS-CoV-2 PLpro (nsp3 1564–1878); test: biochemical; set-up: FRET-quenched peptide (Pro3) cleavage by PLpro, 10 min pre-incubation, slope over 20 min, normalised to no-compound control; conditions: low concentration screen, read-out: % of control remaining
Experimental: The plates were organized with columns 3–22 containing the compounds; the remaining columns were used for reaction controls including substrate only and substrate with enzyme but no compound (Figure 3Aii). The PLpro enzyme was pre-incubated with the compounds for 10 min, and then the reaction was initiated by the addition of substrate. […] We incubated the inhibitors with PLpro before the enzymatic reaction so that the slow-binding inhibitors will not be missed out [21]. […] Fluorescence was read on a Spark multimode microplate reader (Tecan) with an excitation wavelength at 330 nm and emission wavelength at 420 nm. […] An amount of 5 µl of the enzyme was pre-incubated with compounds for 10 min before the addition of 15 µl substrate. Fluorescence was monitored at 2 min for 20 min with 3 min intervals giving a total of seven readings.

What does the source list for `Cc1cc([C@@H]2CCCN2C)on1` [ABT-418]?
remaining activity at 3.75 µM ([1]; Well no.=307): 99.2%; remaining activity at 1.25 µM ([2]; Well no.=307): 97.8%

For `O=C(c1cc(S(=O)(=O)Nc2ccccc2F)c(F)cc1Cl)N1CCN2CCC[C@@H]2C1` [ABT-639], which remaining activity at 3.75 µM ([1]; Well no.=7880) is on record?
The remaining activity at 3.75 µM was 95.4%.

And the remaining activity at 1.25 µM ([2]; Well no.=7880)?
Its remaining activity at 1.25 µM is 94.2%.

What does the source list for `CN(C)CC[C@H](CSc1ccccc1)Nc1ccc(S(=O)(=O)NC(=O)c2ccc(N3CCN(Cc4ccccc4-c4ccc(Cl)cc4)CC3)cc2)cc1[N+](=O)[O-]` [ABT-737]?
remaining activity at 3.75 µM ([1]; Well no.=2692): 101%; remaining activity at 3.75 µM ([1]; Well no.=6348): 96.5%; remaining activity at 3.75 µM ([1]; Well no.=8314): 97.8%; remaining activity at 1.25 µM ([2]; Well no.=2692): 102%; remaining activity at 1.25 µM ([2]; Well no.=6348): 99.7%; remaining activity at 1.25 µM ([2]; Well no.=8314): 98.5%

What does the source list for `COc1ccc(S(=O)(=O)Nc2cccnc2Nc2ccc(O)cc2)cc1` [ABT-751]?
remaining activity at 3.75 µM ([1]; Well no.=5226): 92.1%; remaining activity at 1.25 µM ([2]; Well no.=5226): 91.8%

What does the source list for `Cc1ccc(F)c(NC(=O)Nc2ccc(-c3cccc4[nH]nc(N)c34)cc2)c1` [ABT-869]?
remaining activity at 3.75 µM ([1]; Well no.=2740): 93.3%; remaining activity at 1.25 µM ([2]; Well no.=2740): 94.6%

Which remaining activity at 3.75 µM ([1]; Well no.=5222) does the source give for `C[C@]1(c2nc3c(C(N)=O)cccc3[nH]2)CCCN1` [ABT-888 (Veliparib)] here?
Its remaining activity at 3.75 µM is 94.2%.

What about the remaining activity at 1.25 µM ([2]; Well no.=5222) of the same molecule?
The remaining activity at 1.25 µM was 95.8%.

What does the source list for `O=C(Cc1ccc(Cl)c(Cl)c1)OCCN1CCCC1` [AC 915 oxalate]?
remaining activity at 3.75 µM ([1]; Well no.=61): 102%; remaining activity at 1.25 µM ([2]; Well no.=61): 104%

Which results are given for `C/C(=N\NC(=O)C(NC(=O)c1ccccc1)c1n[nH]c(=O)c2ccccc12)c1cccc(Br)c1` (stereo not shown) [AC-55541]?
remaining activity at 3.75 µM ([1]; Well no.=6997): 106%; remaining activity at 1.25 µM ([2]; Well no.=6997): 106%

How did the remaining activity at 3.75 µM ([1]; Well no.=6052) turn out when `COc1ccc(S(=O)(=O)N2CCC[C@H]2C(=O)Nc2cc(C)cc(C)c2)cc1` [ACT-462206] was run?
The remaining activity at 3.75 µM was 90.9%.

And the remaining activity at 1.25 µM ([2]; Well no.=6052)?
The remaining activity at 1.25 µM was 95.5%.

How did the remaining activity at 3.75 µM ([1]; Well no.=5051) turn out when `CCN(CC)C(=O)c1ccc(C2=CC3(CCNCC3)Oc3cccc(O)c32)cc1` [ADL5859 HCl] was run?
The remaining activity at 3.75 µM was 98.3%.

And the remaining activity at 1.25 µM ([2]; Well no.=5051)?
Its remaining activity at 1.25 µM is 101%.

For `CCN(CC)C(=O)c1ccc(C2=CC3(CCNCC3)Oc3cccc(O)c32)cc1` [ADL-5859], which remaining activity at 3.75 µM ([1]; Well no.=8013) is on record?
Its remaining activity at 3.75 µM is 85.8%.

And the remaining activity at 1.25 µM ([2]; Well no.=8013)?
The remaining activity at 1.25 µM was 92.2%.

How did the remaining activity at 3.75 µM ([1]; Well no.=5247) turn out when `CCN1CCN(Cc2ccc(-c3cc4c(N[C@H](C)c5ccccc5)ncnc4[nH]3)cc2)CC1` [AEE788 (NVP-AEE788)] was run?
Its remaining activity at 3.75 µM is 102%.

And the remaining activity at 1.25 µM ([2]; Well no.=5247)?
The remaining activity at 1.25 µM was 102%.

How did the remaining activity at 3.75 µM ([1]; Well no.=5272) turn out when `CN(C)Cc1ccc(-c2nc3cccc4c3n2CCNC4=O)cc1` [AG14361] was run?
The remaining activity at 3.75 µM was 97.3%.

What about the remaining activity at 1.25 µM ([2]; Well no.=5272) of the same molecule?
The remaining activity at 1.25 µM was 98.1%.

With `N#CC(C#N)=C(N)/C(C#N)=C/c1ccc(O)cc1` [AG 112] as the molecule, how does the remaining activity at 3.75 µM ([1]; Well no.=2609) read?
Its remaining activity at 3.75 µM is 91.5%.

And the remaining activity at 1.25 µM ([2]; Well no.=2609)?
The remaining activity at 1.25 µM was 97%.

Which remaining activity at 3.75 µM ([1]; Well no.=2332) does the source give for `N#C/C(=C\c1ccc(O)c(O)c1)C(=O)NCc1ccccc1` [AG 490 - (E)-2-Cyano-3-(3,4-dihydrophenyl)-N-(phenylmethyl)-2-propenamide] here?
Its remaining activity at 3.75 µM is 93.5%.

What about the remaining activity at 1.25 µM ([2]; Well no.=2332) of the same molecule?
Its remaining activity at 1.25 µM is 95%.

What does the source list for `N#C/C(=C\c1ccc(O)c(O)c1)C(=O)NCc1ccccc1` [AG 490]?
remaining activity at 3.75 µM ([1]; Well no.=2607): 97%; remaining activity at 1.25 µM ([2]; Well no.=2607): 95.5%

`CC(C)(C)c1cc(C=C(C#N)C#N)cc(Br)c1O` [AG 1024] was tested. Which remaining activity at 3.75 µM ([1]; Well no.=2307) did it give?
The remaining activity at 3.75 µM was 104%.

And the remaining activity at 1.25 µM ([2]; Well no.=2307)?
The remaining activity at 1.25 µM was 104%.

Which results are given for `Cc1cc2ncc(-c3ccccc3)nc2cc1C` [AG 1295]?
remaining activity at 3.75 µM ([1]; Well no.=2611): 97.7%; remaining activity at 1.25 µM ([2]; Well no.=2611): 97.5%

With `COc1cc2ncc(-c3ccccc3)nc2cc1OC` [AG 1296] as the molecule, how does the remaining activity at 3.75 µM ([1]; Well no.=2613) read?
Its remaining activity at 3.75 µM is 90.5%.

What about the remaining activity at 1.25 µM ([2]; Well no.=2613) of the same molecule?
Its remaining activity at 1.25 µM is 91.6%.

How did the remaining activity at 3.75 µM ([1]; Well no.=2643) turn out when `COc1cc2ncnc(Nc3cccc(Cl)c3)c2cc1OC` [AG 1478] was run?
Its remaining activity at 3.75 µM is 99.8%.

And the remaining activity at 1.25 µM ([2]; Well no.=2643)?
The remaining activity at 1.25 µM was 97.4%.

`Cc1nc2cc3nc(-c4cccs4)cnc3cc2n1C` [AGL 2043] was tested. Which remaining activity at 3.75 µM ([1]; Well no.=2309) did it give?
Its remaining activity at 3.75 µM is 103%.

What about the remaining activity at 1.25 µM ([2]; Well no.=2309) of the same molecule?
Its remaining activity at 1.25 µM is 104%.

For `CC(C)[C@H]1[C@@H]2CC[C@@H](C2)[C@@H]1N` [AGN 192403 hydrochloride], which remaining activity at 3.75 µM ([1]; Well no.=116) is on record?
The remaining activity at 3.75 µM was 104%.

What about the remaining activity at 1.25 µM ([2]; Well no.=116) of the same molecule?
The remaining activity at 1.25 µM was 101%.

With `O=C(O)CCC/C=C\C[C@@H]1[C@@H](/C=C/[C@H](O)C2Cc3ccccc3C2)[C@@H](F)C[C@@H]1O` [AL-8810] as the molecule, how does the remaining activity at 3.75 µM ([1]; Well no.=205) read?
Its remaining activity at 3.75 µM is 104%.

What about the remaining activity at 1.25 µM ([2]; Well no.=205) of the same molecule?
The remaining activity at 1.25 µM was 100%.

Which results are given for `Cc1noc(-c2ccc(-c3ccc(CC(=O)O)cc3)cc2)c1NC(=O)O[C@H](C)c1ccccc1` [AM095]?
remaining activity at 3.75 µM ([1]; Well no.=7815): 94%; remaining activity at 1.25 µM ([2]; Well no.=7815): 101%

How did the remaining activity at 3.75 µM ([1]; Well no.=5463) turn out when `COc1ccc(C(=O)c2c(C)n(CCN3CCOCC3)c3cc(I)ccc23)cc1` [AM630] was run?
Its remaining activity at 3.75 µM is 107%.

And the remaining activity at 3.75 µM ([1]; Well no.=7903)?
The remaining activity at 3.75 µM was 106%.

What about the remaining activity at 1.25 µM ([2]; Well no.=5463) of the same molecule?
Its remaining activity at 1.25 µM is 103%.

What about the remaining activity at 1.25 µM ([2]; Well no.=7903) of the same molecule?
The remaining activity at 1.25 µM was 98.5%.

Which remaining activity at 3.75 µM ([1]; Well no.=6941) does the source give for `Cc1noc(-c2ccc(-c3ccc(CC(=O)O)cc3)cc2)c1NC(=O)O[C@H](C)c1ccccc1Cl` [AM966] here?
Its remaining activity at 3.75 µM is 102%.

And the remaining activity at 1.25 µM ([2]; Well no.=6941)?
Its remaining activity at 1.25 µM is 104%.

For `CC1(C)CCC(C)(C)c2cc(C(=O)Nc3ccc(C(=O)O)cc3)ccc21` [AM-580], which remaining activity at 3.75 µM ([1]; Well no.=4434) is on record?
The remaining activity at 3.75 µM was 86%.

And the remaining activity at 1.25 µM ([2]; Well no.=4434)?
Its remaining activity at 1.25 µM is 92.7%.

Which remaining activity at 3.75 µM ([1]; Well no.=5289) does the source give for `CN1CCCCC1Cn1cc(C(=O)c2cc([N+](=O)[O-])ccc2I)c2ccccc21` (stereo not shown) [AM-1241] here?
Its remaining activity at 3.75 µM is 99%.

What about the remaining activity at 1.25 µM ([2]; Well no.=5289) of the same molecule?
The remaining activity at 1.25 µM was 101%.

Which results are given for `c1ccc(CNCc2ccc(CN3CCCNCCNCCCNCC3)cc2)nc1` [AMD 3465 (hexahydrobromide)]?
remaining activity at 3.75 µM ([1]; Well no.=7245): 87.4%; remaining activity at 3.75 µM ([1]; Well no.=8419): 92.2%; remaining activity at 1.25 µM ([2]; Well no.=7245): 90.9%; remaining activity at 1.25 µM ([2]; Well no.=8419): 98.5%

With `NCCCCN(Cc1nc2ccccc2[nH]1)[C@H]1CCCc2cccnc21` [AMD-070 (hydrochloride)] as the molecule, how does the remaining activity at 3.75 µM ([1]; Well no.=7093) read?
The remaining activity at 3.75 µM was 100%.

And the remaining activity at 1.25 µM ([2]; Well no.=7093)?
The remaining activity at 1.25 µM was 106%.

For `CCOc1ccc(-n2c([C@@H](C)N(Cc3cccnc3)C(=O)Cc3ccc(OC(F)(F)F)cc3)nc3ncccc3c2=O)cc1` [AMG 487], which remaining activity at 3.75 µM ([1]; Well no.=8651) is on record?
The remaining activity at 3.75 µM was 97.8%.

And the remaining activity at 1.25 µM ([2]; Well no.=8651)?
Its remaining activity at 1.25 µM is 101%.

How did the remaining activity at 3.75 µM ([1]; Well no.=6944) turn out when `CC#C[C@@H](CC(=O)O)c1ccc(OCc2cccc(-c3ccc(C(F)(F)F)cc3)c2)cc1` [AMG 837 (calcium hydrate)] was run?
Its remaining activity at 3.75 µM is 95.6%.

And the remaining activity at 1.25 µM ([2]; Well no.=6944)?
The remaining activity at 1.25 µM was 98.4%.

For `Cc1csc(-c2nnc(Nc3ccc(Oc4ncccc4-c4ccnc(N)n4)cc3)c3ccccc23)c1` [AMG 900], which remaining activity at 3.75 µM ([1]; Well no.=5023) is on record?
The remaining activity at 3.75 µM was 100%.

What about the remaining activity at 1.25 µM ([2]; Well no.=5023) of the same molecule?
The remaining activity at 1.25 µM was 97.2%.

With `CC(=O)Nc1nc2c(Oc3cc(-c4ccc(C(F)(F)F)cc4)ncn3)cccc2s1` [AMG-517] as the molecule, how does the remaining activity at 3.75 µM ([1]; Well no.=5176) read?
Its remaining activity at 3.75 µM is 99.6%.

What about the remaining activity at 1.25 µM ([2]; Well no.=5176) of the same molecule?
Its remaining activity at 1.25 µM is 102%.
